Experimental data published in patent US20180303776A1, “LIPOSOMAL REHYDRATION SALT FORMULATION FOR TREATMENT OF ALCOHOL RELATED DISORDERS” (EINSOF BIOHEALTH LIMITED, priority 2017, published 2018).

Tests used:
[1] = system: rats exposed to ethanol intoxication; assay: Elevated cross maze test during ethanol abstinence; type: in vivo
Procedure: Tests were conducted to determine the effects of repeated OEA administration on depressive and anxiety behavior during early ethanol abstinence. Animals were tested in the cross-raised labyrinth 24 hours and 12 days after the alcohol abuse protocol and forced swimming test was performed 48 hours after the last administration of ethanol. [HMGB1 (High Mobility Group Box 1): high mobility group 1 box; TLR4 (Toll-Like Receptors 4): Receptors type Toll 4: MD2 (Myeloid Differentiation Protein 2): myeloid differentiation protein 2; MyD88 (Myeloid Differentiation Factor 88): myeloid differentiation factor 88; NF-kB (Nuclear Farctor kB): nuclear transcription factor kappa B (p65 subunit); IkB: inhibitory protein IkappaB; TNF-α (Tumor Necrosis Factor α): tumor necrosis factor alpha; IL-1β (Interleukin β): 1interleukin-1 beta; MCP-1 (Monocyte Chemoattractant Protein 1): monocyte chemotactic protein 1; INOS (inducible Nitric Oxide Synthase): inducible nitric oxide synthase; COX-2 (Cyclooxygenase 2): cyclooxygenase 2; 4-HNE (4-hydroxynonenal): 4-hydroxynonenal]. […] The forced swimming test was performed on the rats two days after the last forced feed with ethanol and the specific behaviors were recorded with a digital video camera for 5 minutes. […]

caspase-3 = assay: Caspase-3 expression and activity in frontal cortex; type: in vivo, rats; details: OEA pretreatment
Procedure: (§1) There now follows examples of treatment of ethanol intoxication and using OEA as Example 10. Rats received an initial dose of 5 g/kg of 30% (w/v) ethanol via oral probe and a maximum of 3 g/kg of ethanol in subsequent doses every 8 hours. Blood was collected from the tail vein 2 hours before and 2 hours after 15:00 hours of ethanol administration by gavage on days 2 to 4 in order to determine blood ethanol levels (BEL), and treated of keeping toxic ethanol doses BEL relatively constant (see the table below). Mean ethanol/rat doses were 8 g/kg, 7.5 g/kg, 7.9 g/kg and 4.9 g/kg, day 1 to 4, respectively, and the mean ethanol/rat/day (1-4) was 7.06 g/kg. In a first experiment, the time-course of the neuro-inflammation was verified after 1 hour, 6 hours and 24 hours from the last feeding forced with ethanol. In the second experiment, OEA (5 mg/kg, ip, 10 mg/kg loading dose) was injected as pretreatment 10 min before each ethanol forced feed, and brain/blood tissue samples were collected 2-4 hours after the last administration of ethanol. […]
(§2) HMGB1 is a dangerous cytokine recruited by alcohol that activates the MyD88-dependent TLR4 immune signaling pathway, inducing the translocation of the p65 subunit of NF-kB to the nucleus and increasing its transcriptional activity. […] Lipid peroxidation, measured by the accumulation of 4-HNE, induces a redox cell state related to activation of caspase 3 and cell death by caspase-mediated apoptosis 8. […]
(§3) The western blot analysis was studied. […] Autoradiography was quantified by densitometry (NIH ImageJ® software, National Biosciences, Lincoln, Nebr. USA) and expressed as optical density (O.D.). […]
(§4) Real-time Polymerase Chain Reaction Analysis (RT-PCR) were studied. […] Quantitative changes in mRNA levels were estimated by RT-PCR, carried out in the presence of the SYBR green probe using a […] reaction in a Rotor-Gene (Corbett Research®, Mortlake, NSW, Australia).
Measurement of caspase-3 activity was studied. Caspase-3 activity was determined using a fluorometric assay kit (Abnova®, Taiwan) according to the manufacturer's protocol. […]

p65 subunit of NF-kB = assay: NF-κB p65 expression and transcription factor activity in frontal cortex; type: in vivo, rats
Procedure: (§5) There now follows examples of treatment of ethanol intoxication and using OEA as Example 10. Rats received an initial dose of 5 g/kg of 30% (w/v) ethanol via oral probe and a maximum of 3 g/kg of ethanol in subsequent doses every 8 hours. Blood was collected from the tail vein 2 hours before and 2 hours after 15:00 hours of ethanol administration by gavage on days 2 to 4 in order to determine blood ethanol levels (BEL), and treated of keeping toxic ethanol doses BEL relatively constant (see the table below). Mean ethanol/rat doses were 8 g/kg, 7.5 g/kg, 7.9 g/kg and 4.9 g/kg, day 1 to 4, respectively, and the mean ethanol/rat/day (1-4) was 7.06 g/kg. […]
as §2
Real-time Polymerase Chain Reaction Analysis (RT-PCR) were studied. […] Quantitative changes in mRNA levels were estimated by RT-PCR, carried out in the presence of the SYBR green probe using a […] reaction in a Rotor-Gene (Corbett Research®, Mortlake, NSW, Australia). […]

TLR4 = TLR4 mRNA and protein expression in frontal cortex after ethanol intoxication; type: in vivo, rats; details: OEA pretreatment
Procedure: as §5, with “g/kg. In a first experiment, the time-course of the neuro-inflammation was verified after 1 hour, 6 hours and 24 hours from the last feeding forced with ethanol.” for “g/kg.”
as §2, §3

caspase-8 = assay: Caspase-8 mRNA expression in frontal cortex; type: in vivo, rats; details: OEA pretreatment
Procedure: as §5, §2, §4

MCP-1 = MCP-1 levels in frontal cortex after ethanol intoxication; type: in vivo, rats; details: OEA pretreatment
Procedure: as §5, §2
Levels of HMGB1, pro-inflammatory cytokines (TNF-α, IL-1β) and chemokines MCP-1 were studied. Levels of HMGB1, TNF-α, IL-1β and soluble MCP-1 were determined by Enzyme-linked immunosorbent assay (ELISA) 30 (Elabscience Biotechnology Co., Ltd., China, for HMGB-1; RayBiotech®, GA, USA, for the TNF-α, IL-1β and MCP-1). […]

iNOS = iNOS mRNA expression in frontal cortex; type: in vivo, rats; details: OEA pretreatment
Procedure: as §5, §2, §4

MyD88 = MyD88 protein expression in frontal cortex after ethanol intoxication; type: in vivo, rats; details: OEA pretreatment
Procedure: as §5, with “g/kg. In a first experiment, the time-course of the neuro-inflammation was verified after 1 hour, 6 hours and 24 hours from the last feeding forced with ethanol.” for “g/kg.”
as §2, §3

IL-1β = IL-1β in frontal cortex and plasma after ethanol intoxication; type: in vivo, rats; details: OEA pretreatment
Procedure: as §1, §2, §4
(§6) Levels of HMGB1, pro-inflammatory cytokines (TNF-α, IL-1β) and chemokines MCP-1 were studied. Levels of HMGB1, TNF-α, IL-1β and soluble MCP-1 were determined by Enzyme-linked immunosorbent assay (ELISA) 30 (Elabscience Biotechnology Co., Ltd., China, for HMGB-1; RayBiotech®, GA, USA, for the TNF-α, IL-1β and MCP-1). The nuclear/cytosolic HMGB1 fraction was determined by Western blot analysis.

HMGB1 = HMGB1 expression in frontal cortex after ethanol intoxication; type: in vivo, rats
Procedure: as §5, with “g/kg. In a first experiment, the time-course of the neuro-inflammation was verified after 1 hour, 6 hours and 24 hours from the last feeding forced with ethanol.” for “g/kg.”
as §2, §3

[2] = system: rats exposed to ethanol intoxication; assay: Forced swimming test during early ethanol abstinence; type: in vivo; details: forced swimming test 48 hours after last ethanol administration; OEA pretreatment
Procedure: Tests were conducted to determine the effects of repeated OEA administration on depressive and anxiety behavior during early ethanol abstinence. Animals were tested in the cross-raised labyrinth 24 hours and 12 days after the alcohol abuse protocol and forced swimming test was performed 48 hours after the last administration of ethanol. [HMGB1 (High Mobility Group Box 1): high mobility group 1 box; TLR4 (Toll-Like Receptors 4): Receptors type Toll 4: MD2 (Myeloid Differentiation Protein 2): myeloid differentiation protein 2; MyD88 (Myeloid Differentiation Factor 88): myeloid differentiation factor 88; NF-kB (Nuclear Farctor kB): nuclear transcription factor kappa B (p65 subunit); IkB: inhibitory protein IkappaB; TNF-α (Tumor Necrosis Factor α): tumor necrosis factor alpha; IL-1β (Interleukin β): 1interleukin-1 beta; MCP-1 (Monocyte Chemoattractant Protein 1): monocyte chemotactic protein 1; INOS (inducible Nitric Oxide Synthase): inducible nitric oxide synthase; COX-2 (Cyclooxygenase 2): cyclooxygenase 2; 4-HNE (4-hydroxynonenal): 4-hydroxynonenal]. In this third experiment (n=25), the treatment with ethanol intoxication and OEA pretreatment applied in experiment 2 was repeated, and the animals were submitted to the maze test in a high cross 24 hours and 12 days after the last forced ethanol administration and the forced swimming test 48 hours after the ethanol intoxication protocol. Behavioral tests were studied. The forced swimming test was performed on the rats two days after the last forced feed with ethanol and the specific behaviors were recorded with a digital video camera for 5 minutes. These same rats were also tested by the high cross maze test equipped with infrared light (Panlab, Barcelona, Spain) 1 and 12 days after the last forced feed with ethanol, allowing the animals to freely explore the labyrinth during 5 minutes. Tests were performed 3 hours after onset of the dark phase.

MD2 = MD2 protein expression in frontal cortex after ethanol intoxication; type: in vivo, rats; details: OEA pretreatment
Procedure: as §5, with “g/kg. In a first experiment, the time-course of the neuro-inflammation was verified after 1 hour, 6 hours and 24 hours from the last feeding forced with ethanol.” for “g/kg.”
as §2, §3

COX-2 = COX-2 mRNA expression in frontal cortex; type: in vivo, rats; details: 2-4 hours after last ethanol administration, OEA pretreatment
Procedure: as §5, §2, §4

LPS = assay: Plasma LPS levels (intestinal permeability to endotoxins); type: in vivo, rats; details: pretreated with OEA and receiving ethanol; ethanol alone approximately 80%
Procedure: (§7) There now follows examples of treatment of ethanol intoxication and using OEA as Example 10. Rats received an initial dose of 5 g/kg of 30% (w/v) ethanol via oral probe and a maximum of 3 g/kg of ethanol in subsequent doses every 8 hours. Blood was collected from the tail vein 2 hours before and 2 hours after 15:00 hours of ethanol administration by gavage on days 2 to 4 in order to determine blood ethanol levels (BEL), and treated of keeping toxic ethanol doses BEL relatively constant (see the table below). Mean ethanol/rat doses were 8 g/kg, 7.5 g/kg, 7.9 g/kg and 4.9 g/kg, day 1 to 4, respectively, and the mean ethanol/rat/day (1-4) was 7.06 g/kg. In a first experiment, the time-course of the neuro-inflammation was verified after 1 hour, 6 hours and 24 hours from the last feeding forced with ethanol. In the second experiment, OEA (5 mg/kg, ip, 10 mg/kg loading dose) was injected as pretreatment 10 min before each ethanol forced feed, and brain/blood tissue samples were collected 2-4 hours after the last administration of ethanol.
(§8) Experimental design, drug administration and tissue/plasma collection are now discussed. […]
(§9) Plasma levels of corticosterone and LPS were studied. Corticosterone and LPS were measured in plasma using commercially available kits by radioimmunOEAsay (RIA) (Coat-A-Count®, Siemens, La., USA) or colorimetric enzyme reaction (HyCult Biotech, Uden, respectively).

corticosterone = assay: Plasma corticosterone levels; type: in vivo, rats
Procedure: as §7, §8, §9

TNF-α = TNF-α in frontal cortex and plasma after ethanol intoxication; type: in vivo, rats; details: OEA pretreatment
Procedure: as §1, §2, §4, §6

4-HNE = assay: Lipid peroxidation (HNE adduct formation) in frontal cortex; type: in vivo, rats; details: significant only in the animals treated with ethanol
Procedure: as §5, §2
Lipid peroxidation was studied. […] Levels of HNE protein adducts in cerebral cortex lysates were measured using a competitive 96-well OxySelect™ adduct HNE ELISA Kit (Cell Biolabs®, San Diego, Calif., US).

IκBα = IκBα mRNA and protein expression in frontal cortex; type: in vivo, rats; details: OEA pretreatment
Procedure: as §5, with “g/kg. In a first experiment, the time-course of the neuro-inflammation was verified after 1 hour, 6 hours and 24 hours from the last feeding forced with ethanol.” for “g/kg.”
as §2, §3

## CCCCCCCC/C=C\CCCCCCCC(=O)NCCO [OEA, oleoylethanolamide]
[1]; 24 hours after ethanol intoxication
  anxiety-type behavior: percentage of entries and time in the open arms: clear trend showing a clear anxiolytic effect of OEA in the animals treated with ethanol and control, the Dunn post hoc test found no significant effects in multiple comparisons
[1]; 12 days after ethanol intoxication
  anxiety-type behavior: percentage of entrances and time of permanence in the open arms: not significant
caspase-3
  alcohol-induced overexpression of caspase-3 mRNA: not able to prevent this effect
  ethanol-induced increase in caspase-3 activity: reversed
  ethanol-induced overexpression of caspase-3 protein: prevented
p65 subunit of NF-kB; frontal cortex nuclear extracts, OEA pretreatment
  increase in nuclear activity of p65 induced by ethanol: counteracted
p65 subunit of NF-kB; frontal cortex, OEA pre-administration
  increase in p65 mRNA levels induced by ethanol: partially prevented
TLR4
  ethanol-induced overexpression of TLR4 mRNA: able to reduce the overexpression
  ethanol-induced overexpression of TLR4 protein: able to reduce the overexpression
caspase-8
  ethanol-induced overexpression of caspase-8 mRNA: reversed this effect
MCP-1
  ethanol-induced increase of MCP-1 levels: prevented this effect
iNOS
  ethanol-induced increase in the expression of iNOS mRNA: completely prevented
MyD88
  increase in ethanol-induced MyD88 protein expression: inhibited the increase
IL-1β; frontal cortex
  ethanol-induced increase in IL-1β protein levels: prevented
  ethanol-induced increase of IL-1β mRNA expression: did not prevent this effect
IL-1β; plasma
  ethanol-induced increase of IL-1β: prevented
HMGB1; OEA 5 mg/kg ip 10 min before each ethanol dose
  increase in HMGB1 induced by ethanol intoxication: prevented
HMGB1; OEA pretreatment + ethanol
  nuclear/cytoplasmic HMGB1 ratio: 1.48
[2]
  alcohol-induced depressive symptoms: able to prevent alcohol-induced depressive symptoms
  immobility: normalizing
  latency: normalizing
  swimming: normalizing
MD2
  increase in MD2 protein induced by ethanol: inhibited the increase
COX-2
  COX-2 mRNA levels: reduced COX-2 mRNA levels with ethanol, but not in the animals treated with vehicle
LPS
  LPS plasma levels: 44 % increase over control
corticosterone; animals exposed to ethanol intoxication, OEA pretreatment
  ethanol-induced increase in plasma corticosterone levels: completely prevented
corticosterone; control animals
  plasma corticosterone levels: did not modify
TNF-α; frontal cortex
  ethanol-induced increase of TNF-α mRNA expression: did not prevent this effect
  ethanol-induced increase of TNF-α protein levels: not avoided
TNF-α; plasma
  ethanol-induced increase of TNF-α: partially prevented
4-HNE
  HNE formation (lipid peroxidation): decreased the HNE formation
IκBα
  increase in IκBα mRNA levels induced by ethanol: did not counteract
  increase in IκBα protein expression induced by ethanol: did not counteract
